In test [1] the target is T1, PSMA protein (Homo sapiens, UniProt Q04609).
T1 construct: endogenous in cells; host or cells: LNCaP
As to the kind of experiment: Binding affinity of 99mTc AAPT-PCa bioconjugates in PSMA+ LNCaP cells, gamma counter. The note with it: 99mTc bioconjugate, counts per minute, 1 h incubation, read-out: dissociation constant (KD), binding affinity. How it is done: In an embodiment, FIG. 24, evaluation of binding affinity of AAPT-PCa Bioconjugate 8a in PSMA+ LNCaP cells was done, using gamma scintillation counter. The binding affinity constant of PSMA targeted conjugate, 8a, to target PSMA was determined in vitro in LNCaP cells by measuring the counts per minute for different concentrations of the ^99mTc bioconjugate 8a in triplicate.
A solution of stannous chloride dihydrate (0.80 mg, 0.003 mmol) in 0.2 M hydrochloric acid (0.8 mL) was added to a solution of sodium-α-D-glucoheptonate dihydrate (800 mg, 2.815 mmol) in nitrogen-purged water. Chelating bioconjugate 8a-g (0.001 mmol) was added to the reaction mixture while continuous nitrogen purging. The pH of the solution was adjusted to 6.8 using 0.1 N sodium hydroxide solution. After the pH adjustment nitrogen-purged water was added to achieve a total volume of 10 mL. The solution was then dispensed in 5 mL vials (1 mL/vial) under nitrogen atmosphere and lyophilized for 48 h. […]
The cells were then gently dissociated with trypsin and centrifuge to obtain a pellet. […] The cell pellet free of unbound bioconjugate was resuspended in the ice-cold FACS buffer to evaluate cell-bound radioactivity using a gamma counter. The dissociation constant Kd was calculated using graph pad prism 7.04.

Test [2] addresses T1, PSMA protein. As to the kind of experiment: Binding affinity of fluorescent conjugates in LNCaP cells by flow cytometry (FACS). The following applies: mean fluorescence intensity, triplicate, read-out: dissociation constant (KD). How it is done: In an embodiment in FIG. 15, Evaluation of binding affinity of PSMA targeted fluorescent conjugate 22, AAPT-C17201, using flow cytometry analysis. The binding affinity constant of PSMA targeted fluorescent conjugate, AAPT-C17201, to target PSMA was determined in vitro in LNCaP cells by measuring the mean fluorescence intensity per cell for different concentrations of the fluorescent conjugate in triplicate using Fluorescence Activated Cell Sorting (FACS) study.

Test [3] deals with T2, PSMA protein isolated from prostate cancer cell LNCaP (Homo sapiens, UniProt Q04609).
T2 construct: membrane portion of PSMA enzyme was extracted from PSMA+ LNCaP cell line; endogenous in cells; host or cells: LNCaP (membrane pellet after 100,000 x g ultracentrifugation)
As to the kind of experiment: PSMA or GCPII enzyme inhibition (NAALADase) assay, Amplex Glutamate kit. It is filed as biochemical. The following applies: NAAG 30 nM substrate, 60 min, fluorescence.
Procedure: Briefly, PSMA enzyme was extracted from membrane lysates of LNCaP cell lines after separating the soluble cytosolic PSM′ portion by ultracentrifugation at 100,000×g. The PSMA enzyme (8.3027 ng, 100 μL) free from cytosolic portion was incubated with various concentrations of the AAPT inhibitor (0.1 nM to 1000 nM, 100 μL) in the presence of NAAG (30 nM, 50 μL) for 60 min in a 24-well plate. The amount of glutamic acid released by the hydrolysis of NAAG during competitive inhibition by AAPT inhibitor was measured by incubating each well with a working solution of Amplex Red reagent (100 uM, 50 μL) for 30 min at 37° C. The fluorescence emission from each well, proportional to the amount of released glutamic acid, was measured using Synergy H1 multimode plate reader (BioTek Instruments, Inc., Winooski, VT, USA) at an excitation and emission wavelength of 530 nm and 590 nm respectively.
In the first trial, the enzyme inhibition analysis was performed by incubating PSMA enzyme with increasing concentrations of inhibitor, AAPT.
Fluorescent-based enzyme inhibition assay was performed to determine the IC50 value of the newly synthesized GCPII inhibitors 1-3 (AAPT ligands). Amplex Glutamate kit was purchased from Invitrogen, and a working solution of Amplex Red reagent (5 mL, 100 μM) was prepared. Meanwhile, membrane portion of PSMA enzyme was extracted from PSMA+ LNCaP cell line by following a reported protocol. Briefly LNCaP cells (1 million) were harvested in HEPES buffer (1 mL) and lyzed twice using probe sonicator for 30 s. […] The amount of glutamic acid released by the hydrolysis of NAAG was measured by incubating a working solution of Amplex Red reagent (50 μL, 100 μM) for 30 min at 37° C. The fluorescence emission after the oxidation of Amplex Red reagent was measured by using Synergy H1 multimode plate reader (BioTek Instruments, Inc., Winooski, VT, USA). The excitation wavelength was fixed at 530 nm, and the fluorescence emission is measured at 590 nm. […]

Values joined by “and” are separate entries in the source; they are usually repeats but may differ in a detail not shown here. Identical values can stand only once.

A word on the Kd: it is the equilibrium constant for the complex coming apart. As usually defined, the IC50 is the midpoint of a concentration-inhibition curve. Read a high IC50 as a need for much substance.

T1 sequence (Q04609 whole entry): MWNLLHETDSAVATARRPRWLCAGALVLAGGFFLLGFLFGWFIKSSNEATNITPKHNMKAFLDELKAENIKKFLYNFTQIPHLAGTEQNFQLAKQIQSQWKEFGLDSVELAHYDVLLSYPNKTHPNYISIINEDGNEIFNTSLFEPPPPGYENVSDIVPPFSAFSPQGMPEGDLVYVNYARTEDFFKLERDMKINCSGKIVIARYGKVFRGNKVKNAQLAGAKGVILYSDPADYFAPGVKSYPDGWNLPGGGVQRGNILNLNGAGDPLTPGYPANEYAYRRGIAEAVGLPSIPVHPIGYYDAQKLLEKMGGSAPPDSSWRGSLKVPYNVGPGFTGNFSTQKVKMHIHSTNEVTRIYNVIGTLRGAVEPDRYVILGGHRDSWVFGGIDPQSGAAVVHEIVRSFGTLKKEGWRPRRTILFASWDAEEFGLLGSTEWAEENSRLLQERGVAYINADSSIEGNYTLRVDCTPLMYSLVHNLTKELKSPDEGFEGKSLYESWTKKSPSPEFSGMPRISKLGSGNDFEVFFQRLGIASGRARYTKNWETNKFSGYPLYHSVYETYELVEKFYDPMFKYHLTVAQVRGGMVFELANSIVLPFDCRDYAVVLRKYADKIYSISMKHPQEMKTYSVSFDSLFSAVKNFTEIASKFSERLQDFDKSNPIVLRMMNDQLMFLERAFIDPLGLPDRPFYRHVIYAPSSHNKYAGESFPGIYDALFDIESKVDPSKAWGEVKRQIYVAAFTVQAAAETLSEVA
T2 sequence (Q04609 whole entry): as above

For the compound `NC(CNC(=O)[C@H](Cc1cccc2ccccc12)NC(=O)[C@H](Cc1cccc2ccccc12)NC(=O)CCCCCCCNC(=O)CCC(NC(=O)CNC(CCC(=O)O)C(=O)O)C(=O)O)C(=O)N[C@@H](CC(=O)O)C(=O)N[C@@H](CS)C(=O)O` (stereo partly shown) [Ligand 8g], the Kd at PSMA protein [1] amounted to 42 nM.

On to `CCN(CC)c1ccc2c(-c3ccccc3C(=O)NCCCC[C@H](NC(=O)CCCCCCCNC(=O)c3ccc(CNC(=O)[C@H](Cc4ccccc4)NC(=O)[C@H](Cc4ccccc4)NC(=O)CCCCCCCNC(=O)CC[C@H](NC(=O)CN[C@@H](CCC(=O)O)C(=O)O)C(=O)O)cc3)C(=O)N[C@@H](CC(=O)O)C(=O)NCCN)c3ccc(=[N+](CC)CC)cc-3oc2c1` [Ligand 25], for which the Kd at PSMA protein [2] was 130 nM.

With `CCN(CC)c1ccc2c(-c3ccccc3C(=O)NCCCC[C@H](NC(=O)CCCCCCCNC(=O)[C@H](Cc3ccccc3)NC(=O)[C@H](Cc3ccccc3)NC(=O)CCCCCCCNC(=O)CC[C@H](NC(=O)CN[C@@H](CCC(=O)O)C(=O)O)C(=O)O)C(=O)N[C@@H](CC(=O)O)C(=O)NCCN)c3ccc(=[N+](CC)CC)cc-3oc2c1` [Ligand 22], the Kd at PSMA protein [2] was 85 nM.

In the case of `O=C(O)CC[C@H](NCC(=O)N[C@@H](CCC(=O)O)C(=O)O)C(=O)O` [Ligand 1], in test [3], the IC50 is 38.5 nM and 95 nM and 78 nM.
